Laboratory results reported in ChEMBL document CHEMBL5038653, “A Brain-Penetrant and Bioavailable Pyrazolopiperazine BACE1 Inhibitor Elicits Sustained Reduction of Amyloid β In Vivo” (ACS Med Chem Lett, 2022).

Legend:
[1] = Half life in dog at 0.25 mg/kg, iv; format: ADME, organism-based, Canis lupus familiaris; conditions: in vivo
[2] = Metabolic stability in mouse liver microsomes assessed as metabolite formation after 15 mins in presence of NADPH by LC-MS analysis; format: ADME, Microsome; conditions: 0.25 h
[3] = Cmax in rat at 2.3 mg/kg, po; format: ADME, organism-based; design: route oral, dose 2.3 mg/kg; conditions: in vivo
[4] = Ratio of unbound drug concentration in brain to blood in CD-1 mouse at 10 mg/kg, po measured at 2 hr post dose; format: ADME, organism-based
[5] = AUC (0 to last) in rat at 2.5 mg/kg, po; format: ADME, organism-based; design: route oral, time 0 - last, dose 2.5 mg/kg; conditions: in vivo
hERG (KCNH2) = hERG (KCNH2) (Homo sapiens, UniProt Q12809); assay: Inhibition of hERG expressed in HEK293 cells at 3 uM at -80 mV holding potential by automated patch-clamp method; format: toxicity, cell-based; conditions: HEK293 cells expressing hERG
Sequence of hERG (KCNH2) (Q12809 whole entry): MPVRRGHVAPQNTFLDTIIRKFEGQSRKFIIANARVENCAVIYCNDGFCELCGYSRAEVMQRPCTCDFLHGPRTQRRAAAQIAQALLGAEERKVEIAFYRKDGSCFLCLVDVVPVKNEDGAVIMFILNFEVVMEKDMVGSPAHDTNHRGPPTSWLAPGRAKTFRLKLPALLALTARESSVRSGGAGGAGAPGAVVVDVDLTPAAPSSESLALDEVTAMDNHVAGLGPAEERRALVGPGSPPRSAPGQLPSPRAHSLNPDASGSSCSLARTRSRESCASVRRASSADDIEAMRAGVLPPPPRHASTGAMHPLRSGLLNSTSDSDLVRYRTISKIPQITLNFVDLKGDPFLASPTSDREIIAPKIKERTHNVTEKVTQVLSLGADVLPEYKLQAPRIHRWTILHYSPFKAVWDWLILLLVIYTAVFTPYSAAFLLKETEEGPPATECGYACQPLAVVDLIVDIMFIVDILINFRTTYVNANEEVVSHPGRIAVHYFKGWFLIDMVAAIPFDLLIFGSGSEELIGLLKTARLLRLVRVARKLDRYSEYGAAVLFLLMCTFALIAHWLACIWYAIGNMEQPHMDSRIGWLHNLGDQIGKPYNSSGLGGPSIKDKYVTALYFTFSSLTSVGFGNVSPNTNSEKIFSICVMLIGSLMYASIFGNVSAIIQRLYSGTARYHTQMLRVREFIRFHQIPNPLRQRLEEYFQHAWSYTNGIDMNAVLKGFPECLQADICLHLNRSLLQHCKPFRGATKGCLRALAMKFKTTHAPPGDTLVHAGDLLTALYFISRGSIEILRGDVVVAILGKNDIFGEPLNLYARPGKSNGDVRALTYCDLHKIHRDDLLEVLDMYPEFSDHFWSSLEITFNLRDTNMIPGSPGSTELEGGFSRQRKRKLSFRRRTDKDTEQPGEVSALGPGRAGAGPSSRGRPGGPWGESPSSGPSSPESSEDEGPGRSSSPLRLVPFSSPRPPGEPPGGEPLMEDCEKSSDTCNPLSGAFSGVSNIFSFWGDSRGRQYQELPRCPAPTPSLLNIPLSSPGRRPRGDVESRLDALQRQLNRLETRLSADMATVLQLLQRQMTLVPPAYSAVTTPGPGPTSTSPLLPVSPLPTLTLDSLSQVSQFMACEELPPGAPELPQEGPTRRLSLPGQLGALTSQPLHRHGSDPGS

[6] = Ratio of apparent permeability across apical to basolateral side in the presence of P-gp inhibitor elacridar to the absence of P-gp inhibitor elacridar in dog MDCK-MDR1 cells at 5 uM incubated for 120 mins; format: ADME, cell-based, Canis lupus familiaris; conditions: 2 h
[7] = Free drug concentration in dog plasma measured after 4.5 hrs by HPLC-MS/MS method; format: ADME, cell-free, Canis lupus familiaris
[8] = Clearance in mouse plasma at 0.28 mg/kg, iv; format: ADME, organism-based
[9] = In vivo inhibition of CD-1 mouse assessed as remaining amyloid beta (1 to 42 residues) levels in CSF at 10 mg/kg, po measured at 1 hr; format: functional
[10] = Drug level in CD-1 mouse plasma at 10 mg/kg, po measured at 4 hr post dose; format: ADME, organism-based
[11] = Oral bioavailability in rat at 2.3 mg/kg; format: ADME, organism-based; conditions: in vivo
Cytochrome P450 3A4 [12] = biological target: T1, Cytochrome P450 3A4 (Homo sapiens, UniProt P08684); assay: Inhibition of human CYP3A4 using testosterone as substrate by fluorescence plate reader analysis; format: ADME
T1 sequence (P08684 whole entry): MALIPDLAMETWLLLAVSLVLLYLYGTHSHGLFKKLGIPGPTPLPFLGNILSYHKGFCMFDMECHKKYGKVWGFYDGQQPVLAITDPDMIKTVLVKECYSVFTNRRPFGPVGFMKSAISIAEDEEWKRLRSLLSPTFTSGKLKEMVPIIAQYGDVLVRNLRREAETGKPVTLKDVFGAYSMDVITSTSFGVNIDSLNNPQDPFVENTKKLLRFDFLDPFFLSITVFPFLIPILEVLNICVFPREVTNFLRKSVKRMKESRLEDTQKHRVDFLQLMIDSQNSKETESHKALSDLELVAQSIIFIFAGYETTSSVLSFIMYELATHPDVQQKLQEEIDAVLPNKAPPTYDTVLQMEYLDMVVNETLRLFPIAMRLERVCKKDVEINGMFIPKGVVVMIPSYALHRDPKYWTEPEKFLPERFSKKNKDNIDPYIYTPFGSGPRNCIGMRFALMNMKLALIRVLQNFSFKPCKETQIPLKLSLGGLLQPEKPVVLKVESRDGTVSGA

Cytochrome P450 2C9 = Cytochrome P450 2C9 (Homo sapiens, UniProt P11712); assay: Inhibition of human CYP2C9 by fluorescence plate reader analysis; format: ADME
Sequence of Cytochrome P450 2C9 (P11712 whole entry): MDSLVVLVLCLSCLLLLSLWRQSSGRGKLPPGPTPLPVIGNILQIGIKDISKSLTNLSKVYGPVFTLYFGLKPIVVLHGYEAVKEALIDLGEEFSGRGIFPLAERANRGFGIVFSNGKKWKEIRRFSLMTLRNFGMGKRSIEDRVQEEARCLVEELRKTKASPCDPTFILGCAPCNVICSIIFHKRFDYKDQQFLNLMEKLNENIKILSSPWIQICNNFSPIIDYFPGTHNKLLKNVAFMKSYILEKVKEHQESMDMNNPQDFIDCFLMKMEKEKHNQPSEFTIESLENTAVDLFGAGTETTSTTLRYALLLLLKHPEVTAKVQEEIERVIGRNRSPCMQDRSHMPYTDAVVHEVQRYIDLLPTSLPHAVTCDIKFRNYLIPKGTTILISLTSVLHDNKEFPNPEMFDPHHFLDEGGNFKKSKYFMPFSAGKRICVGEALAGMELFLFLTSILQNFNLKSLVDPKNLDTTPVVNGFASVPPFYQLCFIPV

Cytochrome P450 3A4 [13] = biological target: T1, Cytochrome P450 3A4; assay: Inhibition of human CYP3A4 using midazolam as substrate by fluorescence plate reader analysis; format: ADME
[14] = In vivo inhibition of CD-1 mouse assessed as remaining amyloid beta (1 to 42 residues) levels in CSF at 10 mg/kg, po measured at 2 hrs; format: functional
[15] = Cardiotoxicity in guinea pig assessed as effect on QT interval upto 5 mg/kg, iv administered over 10 mins at 30 mins interval by ECG analysis; format: toxicity, organism-based, Cavia porcellus; conditions: in vivo
Cytochrome P450 1A2 = biological target: T2, Cytochrome P450 1A2 (Homo sapiens, UniProt P05177); assay: Inhibition of human CYP1A2 by fluorescence plate reader analysis; format: ADME
T2 sequence (P05177 whole entry): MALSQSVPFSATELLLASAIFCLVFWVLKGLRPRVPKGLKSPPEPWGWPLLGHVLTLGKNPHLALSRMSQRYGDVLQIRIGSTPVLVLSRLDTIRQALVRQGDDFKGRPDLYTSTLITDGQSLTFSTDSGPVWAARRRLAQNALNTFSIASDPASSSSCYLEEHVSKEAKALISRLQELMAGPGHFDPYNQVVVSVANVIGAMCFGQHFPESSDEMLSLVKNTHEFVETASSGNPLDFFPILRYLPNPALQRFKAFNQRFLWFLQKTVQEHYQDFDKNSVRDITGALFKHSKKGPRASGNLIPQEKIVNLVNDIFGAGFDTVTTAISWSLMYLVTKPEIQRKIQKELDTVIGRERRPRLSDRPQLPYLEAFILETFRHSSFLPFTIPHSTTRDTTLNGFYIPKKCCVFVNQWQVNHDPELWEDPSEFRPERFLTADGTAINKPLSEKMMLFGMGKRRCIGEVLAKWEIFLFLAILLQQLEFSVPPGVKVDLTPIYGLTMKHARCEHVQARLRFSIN

[16] = Ratio of unbound drug concentration in brain to blood in CD-1 mouse at 10 mg/kg, po measured at 4 hr post dose; format: ADME, organism-based
[17] = Tmax in mouse at 2.1 mg/kg, po; format: ADME, organism-based; conditions: in vivo
[18] = Free drug concentration in human plasma measured after 4.5 hrs by HPLC-MS/MS method; format: ADME, cell-free
[19] = Oral bioavailability in dog at 2.5 mg/kg; format: ADME, organism-based, Canis lupus familiaris; conditions: in vivo
[20] = Tmax in rat at 2.3 mg/kg, po; format: ADME, organism-based; conditions: in vivo
[21] = Free drug concentration in rat brain measured after 5 hrs by HPLC-MS/MS method; format: ADME, tissue-based
MDR1 = assay: Efflux ratio of apparent permeability in dog MDCK-MDR1 cells; format: ADME, cell-based, Canis lupus familiaris
[22] = Dissociation constant, pKa of the compound by fast UV-spectrometric titration analysis; format: physicochemical
[23] = Toxicity in guinea pig assessed as effect on body temperature at 0.63 to 5 mg/kg, iv administered over 10 mins at 30 mins interval; format: organism-based, Cavia porcellus; conditions: in vivo, dose 0.63-5 mg/kg
[24] = Volume of distribution at steady state in rat at 0.25 mg/kg, iv; format: ADME, organism-based; conditions: in vivo, read-out: Vdss
Cytochrome P450 2C19 = Cytochrome P450 2C19 (Homo sapiens, UniProt P33261); assay: Inhibition of human CYP2C19 by fluorescence plate reader analysis; format: ADME
Sequence of Cytochrome P450 2C19 (P33261 whole entry): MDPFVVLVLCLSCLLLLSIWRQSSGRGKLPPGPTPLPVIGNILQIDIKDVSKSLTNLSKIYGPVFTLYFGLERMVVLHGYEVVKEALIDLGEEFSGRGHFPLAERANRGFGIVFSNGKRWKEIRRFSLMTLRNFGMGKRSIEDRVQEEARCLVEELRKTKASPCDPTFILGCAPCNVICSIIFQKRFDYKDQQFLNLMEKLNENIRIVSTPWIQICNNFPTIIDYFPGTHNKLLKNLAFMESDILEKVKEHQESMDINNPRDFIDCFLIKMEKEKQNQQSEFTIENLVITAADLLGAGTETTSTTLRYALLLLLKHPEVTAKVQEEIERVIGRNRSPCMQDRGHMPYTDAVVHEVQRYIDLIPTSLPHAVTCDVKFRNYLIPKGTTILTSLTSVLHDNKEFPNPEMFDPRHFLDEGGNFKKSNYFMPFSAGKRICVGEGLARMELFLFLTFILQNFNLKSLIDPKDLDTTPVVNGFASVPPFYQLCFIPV

[25] = AUC (0 to last) in mouse at 2.1 mg/kg, po; format: ADME, organism-based; design: route oral, time 0 - last, dose 2.1 mg/kg; conditions: in vivo
[26] = In vivo inhibition of CD-1 mouse assessed as remaining amyloid beta (1 to 42 residues) levels in CSF at 10 mg/kg, po measured at 4 hrs; format: functional
Beta-secretase 1 = Beta-secretase 1 (Homo sapiens, UniProt P56817); assay: Inhibition of BACE1 (1 to 454 residues) (unknown origin) using APP harboring Swedish Lys/Met mutant-derived peptide as substrate by FRET assay
Sequence of Beta-secretase 1 (P56817 whole entry, the tested form may be a part): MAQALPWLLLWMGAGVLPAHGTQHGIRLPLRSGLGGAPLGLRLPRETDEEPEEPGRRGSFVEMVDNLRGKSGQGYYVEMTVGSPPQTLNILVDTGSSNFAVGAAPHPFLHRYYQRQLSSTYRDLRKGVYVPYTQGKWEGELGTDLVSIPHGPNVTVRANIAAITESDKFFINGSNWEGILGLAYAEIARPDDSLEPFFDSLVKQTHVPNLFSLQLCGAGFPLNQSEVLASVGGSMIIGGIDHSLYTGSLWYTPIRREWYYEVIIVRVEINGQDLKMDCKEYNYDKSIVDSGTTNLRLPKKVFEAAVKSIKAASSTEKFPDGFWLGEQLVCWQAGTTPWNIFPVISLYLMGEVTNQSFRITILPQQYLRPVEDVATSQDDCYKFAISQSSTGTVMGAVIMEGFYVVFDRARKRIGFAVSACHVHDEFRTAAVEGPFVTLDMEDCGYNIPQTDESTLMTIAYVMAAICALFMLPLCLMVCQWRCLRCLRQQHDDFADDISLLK

[27] = Cardiotoxicity in guinea pig assessed as effect on QT cB interval upto 5 mg/kg, iv administered over 10 mins at 30 mins interval by ECG analysis; format: toxicity, organism-based, Cavia porcellus; conditions: in vivo
[28] = Oral bioavailability in mouse at 2.1 mg/kg; format: ADME, organism-based; conditions: in vivo
[29] = Drug level in CD-1 mouse plasma at 10 mg/kg, po measured at 1 hr post dose; format: ADME, organism-based
[30] = Toxicity in Beagle dog assessed as clinical pathological changes at 0.31 to 5 mg/kg, po; format: organism-based, Canis lupus familiaris; conditions: in vivo, dose 0.31-5 mg/kg
[31] = AUC (0 to infinity) in dog at 0.25 mg/kg, iv; format: ADME, organism-based, Canis lupus familiaris; design: route intravenous, time infinity, dose 0.25 mg/kg; conditions: in vivo

COc1cnc(C(=O)Nc2ccc(F)c([C@]3(C)Cn4nc(C#N)cc4C(N)=N3)c2)cn1
half-life [1]: 7.7 h | Drug metabolism [2]: 23% | Cmax [3]: 124 ng/mL | Kp uu at 2 h [4]: 0.29 | AUClast [5]: 3840 ng·h/mL | inhibition at 3 µM (hERG (KCNH2)): 48% | Ratio [6]: 1.56 | fraction unbound at 4.5 h [7]: 0.24 | clearance [8]: 23 mL/min/kg | Activity [9]: 74% | concentration at 4 h [10]: 530 ng/mL | bioavailability [11]: 59% | IC50 (Cytochrome P450 3A4 [12]): > 30 µM | IC50 (Cytochrome P450 2C9): > 30 µM | IC50 (Cytochrome P450 3A4 [13]): > 30 µM | Activity [14]: 53% | Activity [15]: Non-Toxic | IC50 (Cytochrome P450 1A2): > 30 µM | Kp uu at 4 h [16]: 0.22 | Tmax [17]: 2.3 h | fraction unbound at 4.5 h [18]: 0.28 | bioavailability [19]: 67% | Tmax [20]: 5 h | fraction unbound at 5 h [21]: 0.015 | efflux ratio (MDR1): 5.3 | pKa [22]: 7.1 | Activity [23]: Non-Toxic | Vd [24]: 5.3 L/kg | IC50 (Cytochrome P450 2C19): > 30 µM | AUClast [25]: 1910 ng·h/mL | Activity [26]: 45% | IC50 (Beta-secretase 1): 0.0029 µM | Activity [27]: Non-Toxic | bioavailability [28]: > 100% | concentration at 1 h [29]: 591 ng/mL | Activity [30]: Non-Toxic | AUC [31]: 654 ng·h/mL
